Assay results published in US10669268B2, “Bicyclic derivatives” (Hoffmann-La Roche Inc., priority 2012, dated 2020).

Target: ATX (human His-tagged) (Homo sapiens (Human), UniProt Q13822)
Experiment: Human ATX enzyme inhibition assay (fluorescence quenching, MR121 substrate)
Type: biochemical
Settings: 30 nM ATX, 1 μM MR121 substrate, 30° C., pH 8.0
In short: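 Fluorescence-quenching assay using MR121 substrate at 1 μM final, incubated 15 min at 30 °C. Buffer was 50 mM Tris-HCl pH 8.0 with 140 mM NaCl, 5 mM KCl, 1 mM CaCl2, 1 mM MgCl2 and 0.01% Triton X-100.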

Structure (SMILES)	IC50
O=C(/C=C/c1cccc(OC(F)(F)F)c1)N1CC[C@@H]2CN(C(=O)c3ccc4[nH]nnc4c3)C[C@@H]2CC1 [Example 15.72]	15 nM
O=C(OCc1cc(Cl)cc(Cl)c1)N1C[C@@H]2CN(C(=O)c3ccc4[nH]nnc4c3)C[C@H]2C1 [Example 4, (3aS,6aS)-3,5-Dichlorobenzyl 5-(1H-benzo[d][1,2,3]triazole-5-carbonyl)hexahydro-pyrrolo[3,4-c]pyrrole-2(1H)-carboxylate]	8 nM
O=C(OCc1ccc(OC(F)(F)F)cc1F)N1C[C@@H]2CN(C(=O)[C@@H]3CCc4[nH]nnc4C3)C[C@H]2C1 [Example 4.48, (3aS,6aS)-5-((R)-4,5,6,7-tetrahydro-1H-benzotriazole-5-carbonyl)-hexahydro-pyrrolo[3,4-c]pyrrole-2-carboxylic acid 2-fluoro-4-trifluoromethoxy-benzyl ester]	3 nM
N#Cc1cc(Cl)cc(COC(=O)N2C[C@@H]3CN(C(=O)c4ccc5[nH]nnc5c4)C[C@@H]3C2)c1 [Example 4.24, (3aR,6aS)-3-chloro-5-cyanobenzyl 5-(1H-benzo[d][1,2,3]triazole-5-carbonyl)hexahydropyrrolo[3,4-c]pyrrole-2(1H)-carboxylate]	56 nM
O=C(OCc1cc(Cl)cc(Cl)c1)N1CC[C@H]2CN(C(=O)c3ccc4[nH]nnc4c3)C[C@H]2C1 (relative stereo) [Example 1.10, cis-3,5-dichlorobenzyl 2-(1H-benzo[d][1,2,3]triazole-5-carbonyl)hexahydro-1H-pyrrolo[3,4-c]pyridine-5(6H)-carboxylate]	78 nM
Cc1cc(OCC(=O)N2C[C@@H]3CN(C(=O)c4ccc5[nH]nnc5c4)C[C@@H]3C2)c(C(C)C)cc1Cl [Example 15.67]	14 nM
O=C(OCc1cc(Cl)cc(Cl)c1)N1C[C@H]2CCN(C(=O)c3ccc4[nH]nnc4c3)C[C@@H]2C1 (relative stereo) [Example 4.10, trans-3,5-dichlorobenzyl 5-(1H-benzo[d][1,2,3]triazole-5-carbonyl)hexahydro-1H-pyrrolo[3,4-c]pyridine-2(3H)-carboxylate]	4 nM
O=C(c1ccc2[nH]nnc2c1)N1C[C@@H]2CN(S(=O)(=O)CCc3cccc(Cl)c3)C[C@@H]2C1 [Example 1.12, (1H-benzotriazol-5-yl)-{(3aS,6aR)-5-[2-(3-chloro-phenyl)-ethanesulfonyl]-hexahydro-pyrrolo[3,4-c]pyrrol-2-yl}-methanone]	9260 nM
O=C(OCc1cccc(C(O)C(F)(F)F)c1)N1C[C@@H]2CN(C(=O)c3ccc4[nH]nnc4c3)C[C@@H]2C1 (stereo partly drawn) [Example 4.21, cis-5-(1H-benzotriazole-5-carbonyl)-hexahydro-pyrrolo[3,4-c]pyrrole-2-carboxylic acid 3-(2,2,2-trifluoro-1-hydroxy-ethyl)-benzyl ester]	3480 nM
COc1ccc(/C=C/C(=O)N2CC[C@@H]3CN(C(=O)c4ccc5[nH]nnc5c4)C[C@@H]3CC2)cc1F [Example 1.19, (E)-1-((3aR,8aS)-2-(1H-benzo[d][1,2,3]triazole-5-carbonyl)octahydropyrrolo[3,4-d]azepin-6(7H)-yl)-3-(3-fluoro-4-methoxyphenyl)prop-2-en-1-one]	12 nM
COc1cc(/C=C/C(=O)N2C[C@@H]3CN(C(=O)c4ccc5[nH]nnc5c4)C[C@H]3C2)cc(OC)c1 [Example 15.47]	96 nM
O=C(OCc1ccc(OCC(F)(F)F)cc1)N1CC[C@@H]2CN(C(=O)c3ccc4[nH]nnc4c3)C[C@@H]2CC1 [Example 1.48, (3aS,8aR)-2-(1H-benzotriazole-5-carbonyl)-octahydro-pyrrolo[3,4-d]azepine-6-carboxylic acid 4-(2,2,2-trifluoro-ethoxy)-benzyl ester]	7.5 nM
O=C(OCc1ccc(OCC(F)(F)F)cc1F)N1CC[C@@H]2CN(C(=O)c3ccc4[nH]nnc4c3)C[C@@H]2CC1 [Example 1.47, (3aS,8aR)-2-(1H-benzotriazole-5-carbonyl)-octahydro-pyrrolo[3,4-d]azepine-6-carboxylic acid 2-fluoro-4-(2,2,2-trifluoro-ethoxy)-benzyl ester]	2 nM
O=C(/C=C/c1ccc(OC(F)F)cc1)N1CC[C@@H]2CN(C(=O)c3ccc4[nH]nnc4c3)C[C@@H]2CC1 [Example 15.21]	5 nM
O=C(/C=C/c1ccc(OC(F)(F)F)cc1)N1CC[C@@H]2CN(C(=O)N3CCc4[nH]c(=O)ccc4C3)C[C@@H]2CC1 [Example 8.04]	192 nM
O=C(OCc1cc(Cl)cc(Cl)c1)N1CC[C@@H]2CN(C(=O)c3ccc4[nH]nnc4c3)C[C@@H]2C1 [Example 10A, (3aR,7aS)-2-(1H-Benzotriazole-5-carbonyl)-octahydro-pyrrolo[3,4-c]pyridine-5-carboxylic acid 3,5-dichloro-benzyl ester]	36 nM
N#Cc1ccc(/C=C/C(=O)N2C[C@@H]3CN(C(=O)c4ccc5[nH]nnc5c4)C[C@H]3C2)cc1 [Example 15.23]	32 nM
CS(=O)(=O)c1cc(Cl)cc(COC(=O)N2CC[C@@H]3CN(C(=O)c4ccc5[nH]nnc5c4)C[C@@H]3CC2)c1 [Example 4.06, (3aS,8aR)-2-(1H-benzotriazole-5-carbonyl)-octahydro-pyrrolo[3,4-d]azepine-6-carboxylic acid 3-chloro-5-methanesulfonyl-benzyl ester]	12 nM
O=C(COc1ccccc1OC(F)(F)F)N1CC[C@@H]2CN(C(=O)c3ccc4[nH]nnc4c3)C[C@@H]2CC1 [Example 1.32, 1-[(3aS,8aR)-2-(1H-benzotriazole-5-carbonyl)-octahydro-pyrrolo[3,4-d]azepin-6-yl]-2-(2-trifluoromethoxy-phenoxy)-ethanone]	40 nM
O=C(OCc1cc(Cl)cc(Cl)c1)N1C[C@@H]2CN(C(=O)c3ccc4[nH]cnc4c3)C[C@@H]2C1 [Example 1.08, (3aR,6aS)-3,5-dichlorobenzyl 5-(1H-benzo[d]imidazole-5-carbonyl)hexahydropyrrolo[3,4-c]pyrrole-2(1H)-carboxylate]	503 nM

Now from value to compound:

IC50	Structure (SMILES)
1020 nM	N#Cc1ccc(OCC(=O)N2C[C@@H]3CN(C(=O)c4ccc5[nH]nnc5c4)C[C@H]3C2)cc1 [Example 15.94]
5 nM	O=C(CCc1ccc(OC(F)(F)F)cc1F)N1C[C@@H]2CN(C(=O)[C@@H]3CCc4[nH]nnc4C3)C[C@H]2C1 [Example 19.26, 1-[(3aR,6aR)-5-[(5R)-4,5,6,7-tetrahydro-1H-benzotriazole-5-carbonyl]-1,3,3a,4,6,6a-hexahydropyrrolo[3,4-c]pyrrol-2-yl]-3-[2-fluoro-4-(trifluoromethoxy)phenyl]propan-1-one]
8 nM	O=C(c1ccc(-c2ccc(Cl)cc2)cc1)N1C[C@@H]2CN(C(=O)[C@@H]3CCc4[nH]nnc4C3)C[C@H]2C1 [Example 19.11, [(3aS,6aS)-5-(4′-chloro-biphenyl-4-carbonyl)-hexahydro-pyrrolo[3,4-c]pyrrol-2-yl]-(R)-4,5,6,7-tetrahydro-1H-benzotriazol-5-yl-methanone]
8 nM	O=C(/C=C/c1ccc(-c2ccccc2)nc1)N1C[C@@H]2CN(C(=O)c3ccc4[nH]nnc4c3)C[C@H]2C1 [Example 15.77]
464 nM	O=C(CCc1ccc(OC(F)(F)F)cc1)N1CC[C@@H]2CN(C(=O)NCCc3cnn[nH]3)C[C@@H]2CC1 [Example 17.14, (3aS,8aR)-6-[3-(4-trifluoromethoxy-phenyl)-propionyl]-octahydro-pyrrolo[3,4-d]azepine-2-carboxylic acid [2-(3H-[1,2,3]triazol-4-yl)-ethyl]-amide]
9 nM	O=C(/C=C/c1ccc(C(F)(F)F)cn1)N1C[C@@H]2CN(C(=O)c3ccc4[nH]nnc4c3)C[C@H]2C1 [Example 15.78, (E)-1-[(3aR,6aR)-5-(1H-benzotriazole-5-carbonyl)-hexahydro-pyrrolo[3,4-c]pyrrol-2-yl]-3-(5-trifluoromethyl-pyridin-2-yl)-prop-2-en-1-one]
43 nM	COc1ccc(CCC(=O)N2CC[C@@H]3CN(C(=O)c4ccc5[nH]nnc5c4)C[C@@H]3CC2)cc1F [Example 17.07, 1-((3aR,8aS)-2-(1H-benzo[d][1,2,3]triazole-5-carbonyl)octahydropyrrolo[3,4-d]azepin-6(7H)-yl)-3-(3-fluoro-4-methoxyphenyl)propan-1-one]
21 nM	O=C(CCc1ccc(-c2ccccc2)cn1)N1C[C@@H]2CN(C(=O)c3ccc4[nH]nnc4c3)C[C@H]2C1 [Example 17.10, 1-[(3aR,6aR)-5-(1H-benzotriazole-5-carbonyl)-hexahydro-pyrrolo[3,4-c]pyrrol-2-yl]-3-(5-phenyl-pyridin-2-yl)-propan-1-one]
273 nM	O=C(COc1ccccc1C1CCCO1)N1C[C@@H]2CN(C(=O)c3ccc4[nH]nnc4c3)C[C@H]2C1 (stereo partly drawn) [Example 19.14, 1-[(3aS,6aS)-5-(1H-benzotriazole-5-carbonyl)-hexahydro-pyrrolo[3,4-c]pyrrol-2-yl]-2-[2-(tetrahydro-furan-2-yl)-phenoxy]-ethanone]
60 nM	O=C(/C=C/c1ccc(-c2cccnc2)cc1)N1C[C@@H]2CN(C(=O)c3ccc4[nH]nnc4c3)C[C@H]2C1 [Example 15.80, (E)-1-[(3aR,6aR)-5-(1H-benzotriazole-5-carbonyl)-hexahydro-pyrrolo[3,4-c]pyrrol-2-yl]-3-(4-pyridin-3-yl-phenyl)-prop-2-en-1-one]
5 nM	O=C(c1ccc2[nH]nnc2c1)N1C[C@H]2CN(C(=O)c3cc(OCC(F)(F)F)c4ccccc4n3)C[C@@H]2C1 [Example 19.38, ((3aS,6aS)-5-(1H-benzo[d][1,2,3]triazole-5-carbonyl)hexahydropyrrolo[3,4-c]pyrrol-2(1H)-yl)(4-(2,2,2-trifluoroethoxy)quinolin-2-yl)methanone]
